Assay results taken from patent US20230133910A1, “NEW METHOD FOR DETECTING AND QUANTIFYING RNA” (EAST CHINA UNIVERSITY OF SCIENCE AND TECHNOLOGY, priority 2020, published 2023).

What was measured:
[1] = test system: Carrot-1 RNA aptamer; assay: Properties of Carrot-1 RNA aptamer with different fluorophores (spectra, extinction coefficient, quantum yield, activation fold); format: biochemical; settings: for fluorescence intensity: excited at 524±10 nm, emission 580 nm±10 nm, 5 μM Carrot-1 + 1 μM IV-39, or control 1 μM IV-39 alone
Method: (§1) (5) Function detection of nucleic acid aptamers Carrot or Carrot mutant nucleic acid aptamer molecules were prepared according to common experimental method (I), 5 μM of nucleic acid aptamer molecules and 1 μM of fluorophore molecules were incubated in detection buffer (40 mM HEPES, pH 7.4, 125 mM KCl, 5 mM MgCl2, 5% DMSO), and Synergy Neo2 multifunctional microplate reader was used for detecting and obtaining the maximum excitation peak and the maximum emission peak of the fluorescence of the nucleic acid aptamer-fluorophore molecule complex. The Synergy Neo2 multifunctional microplate reader was used again for detecting the fluorescence intensity of the aptamer-fluorophore molecule complex under its maximum excitation and emission conditions. Control sample (1 μM of fluorophore molecules without nucleic acid aptamer) was measured under the same condition, and the ratio of fluorescence intensity was calculated. […] By using Synergy Neo2 multifunctional microplate reader, it was detected that the fluorescence intensity of the complex was 5720 when it was excited at 524±10 nm and emitted under the emission condition of 580 nm±10 nm, while fluorescence intensity of the control sample (1 μM of IV-39 fluorophore molecules) under the same detection condition was 20, so the activation multiple of Carrot-1 nuclear acid aptamer to IV-39 fluorophore molecule was 286.
In order to detect the spectral properties of the Carrot-IV-39 complex, Carrot-1 (SEQ ID NO: 2) RNA was prepared according to the commonly used experimental method (1). 1 μM IV-39 with 5 μM Carrot-1 was incubated.
Carrot-1 RNA aptamer was prepared according to the commonly used experimental methods (1), and was used to detect the properties of IV-39 analogues upon Carrot binding, including the fluorescence spectrum, extinction coefficient, quantum yield and fluorescence activation fold. From the data shown in the table, Carrot-1 still could activate the fluorescence of IV-39 analogues.

[2] = biological target: Carrot-1; assay: Binding constant of Carrot-1 and IV-39 by fluorescence titration; settings: 20 nM Carrot-1 incubated with different concentrations of IV-39
Method: In order to detect the binding constant of Carrot-1 and IV-39, 20 nM Carrot-1 was incubated with different concentrations of IV-39 and their fluorescence was determined.

[3] = Fluorescence activation of IV-39 fluorophore by Carrot-1 and Carrot mutants (function detection of nucleic acid aptamers); format: biochemical; settings: for Activation fold: 1 μM IV-39 incubated with 5 μM Carrot-1 mutant RNA
Method: as §1
In order to detect the fluorescence activation of IV-39 fluorophore by different Carrot mutant, the Carrot-1 sequence was mutated according to Table 1. The Carrot RNA containing different mutations were prepared according to the commonly used experimental method (1). 1 μM IV-39 was incubated with 5 μM Carrot-1 mutant RNA and their fluorescence activation folds were determined according to the commonly used experimental method (5). […] Several Carrot-1 mutants containing 2-5 mutations still retained strong fluorescence activation of IV-39 (>100 times) (Table 3). In summary, many Carrot-1 mutants containing single and multiple mutants still retain the ability to activate the fluorescence of IV-39 fluorophore.

[4] = test system: tdMCP-NanoLuc-tdMCP fusion protein; settings: 293T/17 cells, 1 μM IV-4, 20 μM Furimazine
Text: In order to use Carrot to detect RNA-protein interactions, the interaction between phage capsid protein MCP and its binding sequence MS2 RNA was used as an example. […] The cDNAs encoding tdMCP protein (the dimeric form of MCP, SEQ ID No: 32) and NanoLuc protein (SEQ ID No: 33) were synthesized. Primers P29 and P30, P33 and P34 were used to amplify tdMCP gene fragment, respectively. Primers P35 and P36 were used to amplify NanoLuc gene fragment. The obtained fragments were inserted into the HindIII and XhoI sites of pCDNA3.1 hygro(+) to generate pCDNA3.1 hygro(+)-tdMCP-NanoLuc-tdMCP according to the commonly used experimental method (4), the sequence of the fusion protein encoded by which is SEQ ID No:34.
After 24 h of transfection, 1 μM IV-4 fluorophore was added to label Carrot. Imaging was taken immediately after addition of 20 μM Furimazine to the medium.

[5] = test system: 293T/17 cells; assay: RNA labeling in mammalian cells using tRNA-Carrot-2 and IV-39; format: cell-based
Text: In major imaging experiments of the examples, a Leica SP8 confocal laser microscope was used for photographing, HCXPL APO 63.0×1.47 oil lens and HyD detector were used, and various lasers, such as 405 nm, 457 nm, 476 nm, 488 nm, 497 nm, 514 nm nm, 561 nm and 633 nm, were used for imaging; complexes formed by each Carrot and dye molecules were imaged by laser close to the wavelength corresponding to the maximum excitation peak. For others, GFP used a 488 nm laser; Hoechst and DAPI fluorescence used a 405 nm laser; and Rhodamine used a 561 nm laser.
In order to use Carrot and IV-39 for RNA labeling in mammalian cells, the reported Pepper and Corn aptamer (binding to HBC599 and DFHO fluorophores, respectively) were used as the controls (Chen et al. Nature Biotechnology 2019. 37: 1287-1293; Song et al. Nature Chemical Biology 2017. 13: 1187-1194). The mammalian cell expression plasmids expressing the RNA aptamers were constructed. cDNAs encoding tRNA-Carrot-2 (SEQ ID No: 4), tRNA-Pepper (SEQ ID No: 22) and tRNA-Corn (SEQ ID No: 21) were synthesized and amplified using the primers P7 and P8, and the primers P9 and P10 were used to amplify pEGFP-N1 to remove the promoter and multiple cloning site regions. […] Fluorescence imaging was performed according to the commonly used experimental method (3).

[6] = complex of 5 μM Carrot-1 and 1 μM IV-39

Molecule	fluorescence intensity [1]	Kd [2]	Activation fold ([3]; multiple mutations)	Activation fold ([3]; single mutation)	activation multiple of aptamer to IV-39 fluorophore molecule ([3]; 5 μM Carrot-1, 1 μM IV-39, ratio of fluorescence intensity to fluorophore alone)	maximum emission peak [1, 6]	maximum excitation peak [1, 6]	fluorescence of Carrot-IV-4 complex by luminescence energy transfer (BRET) [4]	fluorescence intensity compared with tRNA-Pepper-HBC599 and tRNA-Corn-DFHO complexes ([5]; 0.5 μM IV-39, 0.5 μM HBC599, 10 μM DFHO)	fluorescence in cells ([5]; 0.5 μM IV-39, 24 h after transfection, with or without 20 mM Mg2+)
CN1C(=O)/C(=C/c2ccc(N(C)CCO)cc2)N=C1/C=C/c1ccccc1 [IV-39]	20	58 nM								
Carrot-1: RNA aptamer with the sequence of SEQ ID NO: 1, General Formula Carrot structure N1AGAUUGUAAACAN14-N15-N16GACACUN23 (GGGAAGAUUGUAAACACGCCGAAAGGCGGACACUUCCC; chemistry not given here)	5720		286 fold	286 fold	286	580 nm	524 nm	could not emit obvious orange-red fluorescence		
tRNA-Carrot-IV-39: complex of tRNA-Carrot-2 (SEQ ID No: 4) RNA aptamer and IV-39 fluorophore (nucleic acid, RNA aptamer in complex with IV-39 fluorophore, further chemistry not given here) GCCCGGAUAGCUCAGUCGGUAGAGCAGCGGCCGGAAGAUUGUAAACACGCCGAAAGGCGGACACUUCCGGCCGCGGGUCCAGGGUUCAAGUCCCUGUUCGGGCGCCA									markedly higher	bright orange fluorescence
